# In patent publication US10757943B2, “Thidiazuron mixtures and uses thereof” (Valent BioSciences LLC, priority 2017, dated 2020):
# Tested on: Concord grape vines
# Test: Bud break and shoot growth of potted dormant Concord grape vines in the greenhouse (Example 1)
# Format: in vivo
# Details: for % bud break (vines with at least one bud break): hydrogen cyanamide 10,000 ppm, 17-0-0 197,100 ppm, 15-0-0 239,060 ppm, ACC 1,000 ppm
# Excerpt: An aqueous 50% hydrogen cyanamide solution (Sigma-Aldrich, St. Louis, Mo. USA) was used as the source of hydrogen cyanamide. The commercial product, Dormex® contains 50% hydrogen cyanamide (w/v) in water.
# Erger® was used as the source of 15-0-0 fertilizer. (Erger is a registered trademark of Valagro S.P.A., Italy and is available from Helena Chemical Company, Collierville, Tenn., USA). Erger® contains 15% total nitrogen as 3.1% ammoniacal nitrogen, 5.8% nitrate nitrogen and 6.1% urea nitrogen and 3.3% calcium derived from ammonium nitrate, calcium nitrate and urea. As used herein, the term “15-0-0 fertilizer” refers to the Erger® formulation above and all formulations described in International PCT application publication WO/2001/037653A2 by Valagro S.P.A., Italy, which is incorporated, herein, in its entirety.
# CAN-17 was used as the source of 17-0-0 fertilizer. CAN-17 contains 17% total nitrogen as 4.6% ammonium nitrogen and […] nitrate nitrogen and 1.3% urea nitrogen and 8.8% calcium derived from ammonium nitrate and calcium nitrate. CAN-17 is available from J.R. Simplot Company (Boise, Id., USA).
# To assess the ability of mixtures of the invention to promote and synchronize bud break these mixtures were applied to Concord grape vines and examined for bud break (initiation of growth) and subsequent shoot development. Specifically, 1 year old dormant bare rooted Concord grape vines were planted in pots containing Pro-Mix® BX potting soil (Pro-Mix is a registered trademark of and available from Premier Horticulture Ltd.) and pruned to 5 nodes on a single shoot. Aqueous solutions of thidiazuron, hydrogen cyanamide, 15-0-0 fertilizer, 17-0-0 fertilizer and 1-aminocyclopropane-1-carboxylic acid (“ACC”), and mixtures thereof were each applied individually or sequentially or co-applied to the first-year wood of separate Concord grape vines. Plants were grown in the greenhouse for 49 days and evaluated for percent of vines showing bud break, or relief from dormancy, periodically between 7 days and the conclusion of the experiment. […] At 49 days after treatment (DAT), the plants were sacrificed and measured for total number of flower clusters, total new shoot length, longest new shoot, combined new shoot fresh weight and combined new shoot dry weight. New shoot growth is the growth arising from the dormant buds not including the woody growth that was planted and gave rise to the new growth.
# Synergy is calculated by the Abbott method: %Cexp=A+B−(AB/100), where % Cexp is the expected efficacy and in which A and B are the speed of bud break or shoot length or shoot weight given by the single active ingredients. If the ratio between the experimentally observed efficacy of the mixture Cobs and the expected efficacy of the mixture is greater than 1, synergistic interactions are present in the mixture” (Gisi, Synergistic Interaction of Fungicides in Mixtures, The American Phytopathological Society, 86:11, 1273-1279,1996).
# [1] = 49 days post treatment, thidiazuron ppm as in label, other concentrations as in Table 1
compound,measurement,setting,value
"NC1(C(=O)O)CC1 [ACC, 1-aminocyclopropane-1-carboxylic acid]",% bud break (vines with at least one bud break),"7 DAT, thidiazuron 300 ppm unless label states other",0%
same,% bud break (vines with at least one bud break),"10 DAT, thidiazuron 300 ppm unless label states other",11.1%
same,% bud break (vines with at least one bud break),"13 DAT, thidiazuron 300 ppm unless label states other",11.1%
same,% bud break (vines with at least one bud break),"15 DAT, thidiazuron 300 ppm unless label states other",11.1%
same,% bud break (vines with at least one bud break),"17 DAT, thidiazuron 300 ppm unless label states other",11.1%
same,% bud break (vines with at least one bud break),"20 DAT, thidiazuron 300 ppm unless label states other",11.1%
same,% bud break (vines with at least one bud break),"22 DAT, thidiazuron 300 ppm unless label states other",22.2%
same,% bud break (vines with at least one bud break),"24 DAT, thidiazuron 300 ppm unless label states other",22.2%
same,% bud break (vines with at least one bud break),"27 DAT, thidiazuron 300 ppm unless label states other",22.2%
same,% bud break (vines with at least one bud break),"29 DAT, thidiazuron 300 ppm unless label states other",33.3%
same,% bud break (vines with at least one bud break),"31 DAT, thidiazuron 300 ppm unless label states other",33.3%
same,% bud break (vines with at least one bud break),"34 DAT, thidiazuron 300 ppm unless label states other",55.6%
same,% bud break (vines with at least one bud break),"36 DAT, thidiazuron 300 ppm unless label states other",66.7%
same,% bud break (vines with at least one bud break),"38 DAT, thidiazuron 300 ppm unless label states other",77.8%
same,% bud break (vines with at least one bud break),"41 DAT, thidiazuron 300 ppm unless label states other",77.8%
same,% bud break (vines with at least one bud break),"43 DAT, thidiazuron 300 ppm unless label states other",77.8%
same,% bud break (vines with at least one bud break),"49 DAT, thidiazuron 300 ppm unless label states other",77.8%
same,Combined Shoot Dry Weight,[1],1.2 g
same,Combined Shoot Fresh Weight,[1],7.1 g
same,Longest Shoot Length,[1],27.9 cm
same,Total # of Flower Clusters,[1],0.1
same,Total Shoot Length,[1],28.9 cm
same,Dry Weight (g)/25% Bud Break to Harvest (d),combined shoot dry weight at 49 DAT normalised by days from 25% bud break to harvest,0.06 g/day
same,Dry Weight (g)/50% Bud Break to Harvest (d),combined shoot dry weight at 49 DAT normalised by days from 50% bud break to harvest,0.08 g/day
same,Fresh Weight (g)/50% Bud Break to Harvest (d),combined shoot fresh weight at 49 DAT normalised by days from 50% bud break to harvest,0.47 g/day
same,50% Bud Break to Harvest,"harvest at day 49, thidiazuron 300 ppm unless label states other, other concentrations as in Table 1",15 days
same,Initial to 50% Bud Break,"synchrony of bud break, thidiazuron 300 ppm unless label states other, other concentrations as in Table 1",25 days
same,25% Bud Break (DAT),"time to 25% bud break, thidiazuron 300 ppm unless label states other, other concentrations as in Table 1",28 DAT
same,50% Bud Break (DAT),"time to 50% bud break, thidiazuron 300 ppm unless label states other, other concentrations as in Table 1",34 DAT
